What all share (type): in vivo
For assay [1], the system named is H22 liver subcutaneous transplanted tumor. Description: Mouse model of H22 liver subcutaneous transplanted tumor. The note with it: 20 mg/kg injected intraperitoneally 14 days (positive drug). Here is the method:
(§1) The method was as follows:
Experimental procedure: H22 hepatoma cell suspension was adjusted to 1×10^7/mL after dilution and counting with normal saline, and 0.2 mL per mouse was inoculated on the back of the mice. After 24 hours, the mice were weighed and administered drug at a dose of 0.1 mL/10 g once a day, wherein the mice in the solvent control group and the treatment groups were administered 0.9% sodium chloride solution and the compound of the present invention, respectively, for 14 days, and the mice in the CTX group were injected intraperitoneally for 14 days. The mice were weighed after 14 days. The animals were executed and the tumor blocks were removed and weighed separately. The tumor inhibition rate was calculated according to the following formula: tumor inhibition rate (%)=(1−average tumor weight in a treatment group/average tumor weight in the solvent control group)×100%.

For assay [2], the system named is mouse model of focal segmental glomerulosclerosis. The experiment in a line: Mouse model of focal segmental glomerulosclerosis (adriamycin). Here is the method:
as §1
Each mouse in the model group, the treatment groups and the positive control group was injected once into the tail vein with adriamycin at a dose of 8 mg/kg, and each mouse in the control group was injected once into the tail vein with saline at the same dose. The mice in the control group and model group were administered equal amount of saline by gavage for 6 weeks, and the mice in other group were administered corresponding compound in doses by gavage at a fixed time each day for 6 weeks after modelling with adriamycin. The body weights were recorded weekly and urine samples were collected.
Collection of urine samples: animals were placed in separate metabolic cages by group on days 0, 7, 14, 21, 28, 35, and 42 after modelling, with free access to water and no access to food, and urine samples were collected from each group of mice.
Determination of urine protein level using Coomassie brilliant blue (CBB) method: urine protein level was determined by urine protein quantitative test kit (Nanjing Jiancheng Bioengineering Institute). CBB working solution was prepared according to the kit instructions. 0.05 mL of each urine sample was mixed with 3 mL of CBB working solution, the mixture was allowed to stand for 5 min, and the absorbance value of each sample was determined at 595 nm. The urine protein levels samples of each group was calculated according to the protein standardization formula: urine protein level (mg/L)=(measured OD−blank OD)/(standard OD−blank OD)×563 mg/L.
Collection of serum samples: orbital blood from each mouse was collected in an EP tube, placed at 37° C. for 20 minutes, and centrifuged to obtain an upper layer of serum.
Collection of plasma samples: orbital blood from each mouse was collected in an anticoagulation tube, mixed well and stored at 4° C. for later use.
Determination of urea nitrogen level in plasma by diacetyl monoxime method: urea nitrogen level was determined by using blood urea nitrogen (BUN) test kit (Nanjing Jiancheng Bioengineering Institute). According to the kit instructions, 0.05 mL of anticoagulated plasma sample was mixed with 1 mL of oxime solution and 1 mL of acid working solution, and the mixtures were placed in a boiling water bath for 15 minutes. A UV-visible spectrophotometer was used to determine the absorbance values of each tube at a wavelength of 520 nm. Urea nitrogen levels in plasma samples of each group were calculated according to the formula: Urea nitrogen level (mmol/L)=(measured OD value−blank OD value)/(standard OD value−blank OD value)×10 mmol/L.
Collection of kidney tissue samples: kidneys were taken from mice after anesthesia, cut horizontally, and the upper part of the kidneys was embedded in OCT embedding box, sliced with frozen slicer and stored at −20° C.
H&E staining was used to assess pathological glomerular changes, and the procedure was as follows: frozen sections were fixed with 95% ethanol for 2 minutes, hydrated with distilled water, stained with hematoxylin for 3 minutes, washed with distilled water for 3 minutes, differentiated using 1% hydrochloric acid in ethanol for 10 seconds, washed with distilled water for 30 seconds, returned to blue in running water for 5 minutes, washed in distilled water for 30 seconds, stained with eosin for 30 seconds, washed with 75% and 85% ethanol for 20 seconds each, dehydrated rapidly with 95% ethanol for 1 minute, dehydrated with anhydrous ethanol, cleared to transparency in xylene (1 minute×3), and finally sealed with neutral balsam and photographed with a biomicroscope.

The test system of assay [3] is mouse model of renal fibrosis (UUO). Description: Mouse model of renal fibrosis (unilateral ureteral obstruction, UUO). Here is the method:
The therapeutic effect of the compounds of the present invention (as exemplified by Compound 1-1 obtained in Example 1) on renal fibrosis was determined using a mouse model of renal fibrosis. The method was as follows:
Grouping of animals: male C57BL/6J mice aged 8 weeks were given adaptive feeding for 3 days and grouped into a sham operation group, a sham operation-treatment group, a Unilateral ureteral obstruction (UUO) model group, a low-dose (10 mg/kg) treatment group, a medium-dose (25 mg/kg) treatment group, a high-dose (50 mg/kg) treatment group, a medium-dose (25 mg/kg) treatment group of indole analogue 3-[(1-methyl-1H-indole-2-carbonyl)amino]propionic acid disclosed in CN2019107285315, and a positive control group of losartan (50 mg/kg), with 10 animals in each group. Mice in the model and the treatment groups were anesthetized by intraperitoneal injection of 0.5% sodium pentobarbital at a dose of 0.1 mL/10 g. The mice were fixed on the operating table and cut open in layers from the right side of the mid-abdomen to locate the left kidney, and the ends of the ureter were ligated, while the ureter was cut off between the two ligations; the sham operation group was operated as described above and the ligations were not performed. Post-operative organs were repositioned, sutured, and sterilized with iodophor after suturing was completed. Immediately after operation, the drug was administered by gavage once daily for 14 days. Urine sample collection: animals were placed in separate metabolic cages by group on days 0, 5, 10 and 14 after modelling, without food or water, and urine samples were collected from each group of mice.
The protein levels in urine were determined using Coomassie brilliant blue (CBB) method by using urine protein quantitative test kit (Nanjing Jiancheng Bioengineering Institute). CBB working solution was prepared according to the kit instructions. 0.05 mL of each urine sample was mixed with 3 mL of CBB working solution, the mixture was left to stand for 5 min, and the absorbance value of each sample was determined at 595 nm. The protein levels in each group of urine samples were calculated according to the protein standardization formula: urine protein levels (mg/L)=(measured OD−blank OD)/(standard OD−blank OD)×563 mg/L.
Collection of serum sample: orbital blood from each mouse was collected in an EP tube, placed at 37° C. for 20 minutes, and centrifuged to obtain the upper layer of serum.
Collection of plasma sample: orbital blood from each mouse was collected in an anticoagulation tube, mixed well and stored at 4° C. for later use.
Determination of creatinine levels in urine and serum by the picric acid colorimetric method: creatinine levels in urine and serum were determined by using the creatinine test kit (Nanjing Jiancheng Bioengineering Institute). According to the kit instructions, 1.5 mL of urine sample or serum sample and 0.5 mL of picric acid solution, 0.5 mL of 0.5 mol/L sodium hydroxide solution were mixed, heated in water bath at 37° C. for 10 minutes. The absorbance value of each sample was determined using a UV spectrophotometer at a wavelength of 510 nm. Creatinine levels in samples of each group were calculated according to the formula: creatinine level (μmol/L) in serum or urine=(measured OD value−blank OD value)/(standard OD value−blank OD value)×50 μmol/L×(dilution ratio 201).
Determination of urea nitrogen level in plasma by diacetyl monoxime method: urea nitrogen level was determined was determined by using blood urea nitrogen (BUN) test kit (Nanjing Jiancheng Bioengineering Institute). According to the kit instructions, 0.05 mL of anticoagulated plasma samples were mixed with 1 mL of oxime solution and 1 mL of acid working solution, and the mixtures were placed in a boiling water bath for 15 min. A UV-visible spectrophotometer was used to determine the absorbance values of each tube at a wavelength of 520 nm. […]

The subject of assay [4] is rat model of pulmonary hypertension induced by monocrotaline. The experiment in a line: Rat model of pulmonary hypertension induced by monocrotaline. Here is the method:
The preventive effect of the compounds of the present invention (as exemplified by compound 1-1 obtained in Example 1) on pulmonary hypertension was determined using a rat model of pulmonary hypertension induced by monocrotaline. The method was as follows:
Grouping of animals: 70 male SD rats with weigh of 200±20 g were randomly divided into 7 groups, i.e., a normal control group, a monocrotaline (MCT) model group, a treatment group of low-dose compound 1-1 (10 mg/kg) (MCT), a treatment group of medium-dose compound 1-1 (25 mg/kg) (MCT), a treatment group of high-dose compound 1-1 (50 mg/kg) (MCT), a treatment group of medium-dose indole analogue 3-[(1-methyl-1H-indole-2-carbonyl)amino]propionic acid (25 mg/kg) disclosed in CN2019107285315 (MCT), and a sildenafil group (150 mg/kg) (MCT), with 10 rats in each group.
Experimental procedure: MCT was prepared as a 2% solution with a mixture of ethanol and saline (2:8) and the solution was injected intraperitoneally once at a dose of 60 mg/kg body weight in all groups except the normal control group. Each rat in the normal control group was injected intraperitoneally once with a solution prepared from ethanol and saline in a volume ratio of 2:8. Compound 1-1 obtained in Example 1, the indole analogue 3-[(1-methyl-1H-indole-2-carbonyl)amino]propionic acid disclosed in CN2019107285315, or the positive drug sildenafil was administered by gavage to the mice in the treatment groups on the day of modelling, and saline was administered by gavage to the mice in the normal control group and the MCT model group. The drugs were administered by gavage once a day for 28 days until 12 hours before test.
Determination of hemodynamic indexes: a polyethylene plastic microcatheter filled with heparin solution (0.9% sodium chloride solution+10 U/mL heparin) was inserted into the right external jugular vein of a rat, and the other end of the microcatheter was connected to a miniature pressure transducer to monitor the pressure changes. […] After 30 minutes of stabilization, the POWERLAB multi-channel intelligent physiological signal acquisition and recording system was applied to acquire, record and analyze the indexes.
Determination of the index of right ventricular (RV) hypertrophy: at the end of the experiment, the heart was removed by dissection of the thorax and the atrial tissue was cut off. The right ventricle (RV), left ventricle (LV), and interventricular septum (S) were isolated along the edge of the interventricular septum, and the RV, LV, and S were weighed after absorbing water with filter paper and the ratio RV/(LV+S) was used to reflect the degree of RV hypertrophy.
Pathological examination of pulmonary vessels: tissue blocks were taken from the same site in the lower lobe of the right lung and fixed in 10% neutral formaldehyde (pH=7.4) for 2 days. Routine paraffin embedding, serial sections, H&E staining and light microscopy were performed to observe morphological changes in small pulmonary arteries.
Effect on inflammatory factors in lung tissue: Lung tissues were collected from each group of rats, homogenates of lung tissue were prepared and centrifuged and supernatants were collected. The protein level in the supernatant was determined by Coomassie brilliant blue method, and tumor necrosis factor-α (TNF-α) in rats was determined by an ELISA kit (Beijing 4A Biotech Co., Ltd.). […]

[5] abbreviates: gavage once daily 14 days, not statistically different (P>0.05).
Setting [6] is: MCT + sildenafil (150 mg/kg) gavage 28 days.

Turning to `O=P1(N(CCCl)CCCl)NCCCO1` (stereo not drawn) [CTX, cyclophosphamide, reference compound], the tumor inhibition rate in assay [1] is 60.3%.

Consider `CCCCC1=NC2(CCCC2)C(=O)N1Cc1ccc(-c2ccccc2-c2nnn[nH]2)cc1` [irbesartan, reference compound], for which the “serum urea nitrogen level reduced compared with the model group” value in assay [2] (50 mg/kg gavage, 6 weeks) amounted to 9.0%. Further, the “serum urea nitrogen level” value in assay [2] (50 mg/kg gavage, 6 weeks, model 16.08±0.23) worked out at 14.63 ± 0.19 mmol/L. Further, the urine protein level in assay [2] (50 mg/kg gavage, 6 weeks, model 547.0±106.3) was 382 ± 80.8 mg/L. For the same compound, the “glomerular lesions, renal tissue pathology (H&E, PAS, Sirius red stain)” value in assay [2] (FIG. 1, control compound 25 mg/kg, irbesartan 50 mg/kg) is recorded as “shows the same effect”. Besides, the “body weight compared with the FSGS group” value in assay [2] (gavage daily 6 weeks, compound 1-1 10, 25, 50 mg/kg, control compound 25 mg/kg, irbesartan 50 mg/kg) is given as “increased body weights”.

As for `CCCCc1nc(Cl)c(CO)n1Cc1ccc(-c2ccccc2-c2nn[nH]n2)cc1` [losartan, reference compound], in assay [3] (50 mg/kg gavage 14 days), the “creatinine level reduced compared with the model group” value was found to be 19.0%, the “urea nitrogen level reduced compared with the model group” value is on record as 29.7% and the “urine protein level reduced compared with the model group” value is listed as 46.6%. This compound also gave a urea nitrogen level in assay [3] (50 mg/kg gavage 14 days, model 17.56±0.48) of 12.35 ± 0.37 mmol/L. For the same compound, the serum creatinine level in assay [3] (50 mg/kg gavage 14 days, model 32.48±0.87) is 26.32 ± 1.12 µmol/L. This compound came in with a urine protein level in assay [3] (50 mg/kg gavage 14 days, model 888.5±264.8) of 475 ± 112 mg/L. For the same compound, the “extent of renal fibrosis, pathological staining (H&E, Masson, Sirius red)” value in assay [3] (FIG. 2, control compound 25 mg/kg, losartan 50 mg/kg) is on record as “shows the same effect”. Besides, in assay [3] (setting [5]), the “body weight compared with the UUO model group” value was “slight increase in body weight” and the “kidney weight compared with the UUO model group” value is recorded as “slight decrease in kidney weight”.

On to `CCCc1nn(C)c2c(=O)[nH]c(-c3cc(S(=O)(=O)N4CCN(C)CC4)ccc3OCC)nc12` [sildenafil, reference compound], for which, in assay [4] (setting [6]), the “RV/(LV + S)” value is given as 0.32 ± 0.02 and the “TNF-α in lung tissue” value is given as 0.600 ± 06 g/g protein. The mPAP in assay [4] (MCT + sildenafil (150 mg/kg) gavage once a day 28 days) is recorded as 23.6 ± 3.4 mmHg.

Values taken from US12692232B2, “Indole carboxamide compound, preparation therefor and use thereof” (NANJING RUISHUNING MEDICAL TECHNOLOGY CO., LTD., priority 2021, dated 2026).
